{"source": "patent US20140350081A1", "about": "“INSECT G-COUPLED RECEPTORS USEFUL AS TARGETS FOR INSECTICIDES AND COMPOUNDS AND REAGENTS IDENTIFIED USING THE SAME” (priority 2011, published 2014)", "key": {"[1]": {"molecular_target": "Isdop2 (Ixodes scapularis, UniProt A0ACM8DGL0)", "sequence (A0ACM8DGL0 entry or part of it)": "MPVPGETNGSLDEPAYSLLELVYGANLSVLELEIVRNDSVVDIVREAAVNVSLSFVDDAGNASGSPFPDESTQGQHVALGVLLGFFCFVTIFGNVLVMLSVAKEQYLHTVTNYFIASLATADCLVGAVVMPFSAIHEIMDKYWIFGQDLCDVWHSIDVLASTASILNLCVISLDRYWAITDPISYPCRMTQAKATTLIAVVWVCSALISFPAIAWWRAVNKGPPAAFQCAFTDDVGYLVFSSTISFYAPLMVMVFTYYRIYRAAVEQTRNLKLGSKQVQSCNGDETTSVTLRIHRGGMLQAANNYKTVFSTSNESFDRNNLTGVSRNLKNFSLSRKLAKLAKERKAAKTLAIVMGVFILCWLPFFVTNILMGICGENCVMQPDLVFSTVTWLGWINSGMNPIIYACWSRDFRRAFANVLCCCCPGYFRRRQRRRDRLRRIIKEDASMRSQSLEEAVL", "assay": "cell-based", "conditions": "for inhibition at 10 µM: read-out: % Inhibition (of response to dopamine), Isdop2 screen"}, "[2]": {"molecular_target": "T1, AaDOP2 (Aedes aegypti, UniProt H6D5H2)", "T1 sequence (H6D5H2 entry or part of it)": "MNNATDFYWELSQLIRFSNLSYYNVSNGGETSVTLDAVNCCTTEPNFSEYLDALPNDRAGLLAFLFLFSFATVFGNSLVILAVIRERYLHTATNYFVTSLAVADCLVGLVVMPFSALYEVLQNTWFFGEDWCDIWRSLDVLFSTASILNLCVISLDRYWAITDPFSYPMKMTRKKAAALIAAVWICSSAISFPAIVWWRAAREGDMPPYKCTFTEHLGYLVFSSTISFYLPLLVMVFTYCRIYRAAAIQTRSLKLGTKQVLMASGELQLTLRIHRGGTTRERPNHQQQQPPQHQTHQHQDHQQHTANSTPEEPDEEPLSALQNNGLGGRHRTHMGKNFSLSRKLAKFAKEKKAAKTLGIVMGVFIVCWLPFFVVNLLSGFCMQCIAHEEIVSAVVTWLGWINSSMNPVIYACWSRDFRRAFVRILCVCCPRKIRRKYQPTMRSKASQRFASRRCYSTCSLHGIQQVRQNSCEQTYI", "assay": "LOPAC1280 antagonist screen in HEK-CRELuc-Aadop2 cells", "format": "cell-based", "conditions": "for % inhibition of DA activity (Aedes cell-based assay screen): LOPAC1280 screen hits"}, "[3]": {"molecular_target": "T1, AaDOP2", "assay": "HTRF cAMP accumulation concentration response assay (Cisbio Dynamic 2)", "format": "cell-based"}, "[4]": {"tested_on": "Ae. aegypti L3 larvae", "assay": "whole plant or invertebrate", "conditions": "Aedes aegypti"}, "[5]": {"conditions": "10 μM compound, 300 nM dopamine, quadruplicate"}, "[6]": {"conditions": "10 μM compound, footnote 3 mM dopamine"}, "[7]": {"conditions": "AaDOP2 expressing cells in the presence of dopamine, No Inhibition = <10% inhibition at 3 μM test compound"}, "[8]": {"conditions": "24 h, read-out: Toxicity to Aedes aegypti larvae (mortality) 24 hours, 400 μM, L3 larvae, three independent experiments"}, "[9]": {"conditions": "48 h, read-out: Toxicity to Aedes aegypti larvae (mortality) 48 hours, 400 μM, L3 larvae, three independent experiments"}, "[10]": {"conditions": "72 h, read-out: Toxicity to Aedes aegypti larvae (mortality) 72 hours, 400 μM, L3 larvae, three independent experiments"}, "[11]": {"conditions": "in vitro Concentration Response Curve assay, n = 2, relative to control antagonist Amitriptyline, read-out: Avg IC50"}}, "note": "Counter-ions that a name gives are not always drawn. Like-named read-outs stand apart in the source and are kept apart here.", "data": [{"smiles": "CC(CN(C)C)CN1c2ccccc2CCc2ccccc21", "note": "(racemic) [Trimipramine, (±)-3-(10,11-dihydro-5H-dibenzo[b,f]azepin-5-yl)-N,N,2-trimethylpropan-1-]", "values": [{"measurement": "inhibition at 10 µM", "setting": "[1]", "value": 86, "unit": "%"}, {"measurement": "% of the SCH23390 effect", "setting": "[2]; [5]", "value": 87, "unit": "%"}, {"measurement": "% inhibition of DA activity (Aedes cell-based assay screen)", "setting": "[2]", "value": 87, "unit": "%"}]}, {"smiles": "CN1C2CCC1CC(OC(c1ccccc1)c1ccc(Cl)cc1)C2.Cl", "note": "(stereo not drawn) [4′-Chloro-3-alpha-(diphenylmethoxy) tropane hydrochloride]", "values": [{"measurement": "% Inhibition (of response to dopamine), Isdop2 screen", "setting": "[1]; [6]", "value": 80, "unit": "%"}, {"measurement": "% of the SCH23390 effect", "setting": "[2]; [5]", "value": 85, "unit": "%"}]}, {"smiles": "CC[C@@]1(O)C(=O)OCc2c1cc1n(c2=O)Cc2cc3ccccc3nc2-1", "note": "[(S)-(+)-Camptothecin]", "values": [{"measurement": "% Inhibition (of response to dopamine), Isdop2 screen", "setting": "[1]; [6]", "value": 97, "unit": "%"}, {"measurement": "% of the SCH23390 effect", "setting": "[2]; [5]", "value": 93, "unit": "%"}]}, {"smiles": "CNCC[C@@H](Oc1ccccc1C)c1ccccc1", "note": "[Atomoxetine]", "values": [{"measurement": "IC50 ± S.E.M. (nM), HTRF cAMP assay", "setting": "[3]; [7]", "value": "No Inhibition^a"}, {"measurement": "mortality at 400 µM", "setting": "[4]; [8]", "value": 20, "unit": "%"}, {"measurement": "mortality at 400 µM", "setting": "[4]; [9]", "value": 30, "unit": "%"}, {"measurement": "mortality at 400 µM", "setting": "[4]; [10]", "value": 30, "unit": "%"}]}, {"smiles": "CNCCCN1c2ccccc2CCc2ccccc21", "note": "[Desipramine]", "values": [{"measurement": "IC50", "setting": "[3]; AaDOP2 expressing cells in the presence of dopamine, No Inhibition = <10% inhibition at 3 μM test compound, read-out: IC50 ± S.E.M. (nM), HTRF cAMP assay", "value": 3300, "unit": "nM"}, {"measurement": "mortality at 400 µM", "setting": "[4]; [8]", "value": 30, "unit": "%"}, {"measurement": "mortality at 400 µM", "setting": "[4]; [9]", "value": 40, "unit": "%"}, {"measurement": "mortality at 400 µM", "setting": "[4]; [10]", "value": 43, "unit": "%"}]}, {"smiles": "Cc1nc2sccn2c(=O)c1CCN1CCC(=C(c2ccccc2)c2ccc(F)cc2)CC1", "note": "[Diacylglycerol kinase inhibitor I]", "values": [{"measurement": "% Inhibition (of response to dopamine), Isdop2 screen", "setting": "[1]", "value": 69, "unit": "%"}, {"measurement": "% of the SCH23390 effect", "setting": "[2]; [5]", "value": 90, "unit": "%"}]}, {"smiles": "CC[C@H]1CN2CCc3cc(OC)c(OC)cc3[C@@H]2C[C@@H]1C[C@H]1NCCc2cc(OC)c(OC)cc21", "note": "[Emetine dihydrochloride hydrate]", "values": [{"measurement": "inhibition at 10 µM", "setting": "[1]", "value": 100, "unit": "%"}, {"measurement": "% of the SCH23390 effect", "setting": "[2]", "value": 86, "unit": "%"}]}, {"smiles": "COCCCC/C(=N\\OCCN)c1ccc(C(F)(F)F)cc1", "note": "[Fluvoxamine]", "values": [{"measurement": "IC50 ± S.E.M. (nM), HTRF cAMP assay", "setting": "[3]; [7]", "value": "No Inhibition^a"}, {"measurement": "mortality at 400 µM", "setting": "[4]; [8]", "value": 27, "unit": "%"}, {"measurement": "mortality at 400 µM", "setting": "[4]; [9]", "value": 33, "unit": "%"}, {"measurement": "mortality at 400 µM", "setting": "[4]; [10]", "value": 43, "unit": "%"}]}, {"smiles": "CC(=O)[C@]1(O)Cc2c(O)c3c(c(O)c2[C@@H](O[C@H]2C[C@H](N)[C@H](O)[C@H](C)O2)C1)C(=O)c1ccccc1C3=O", "note": "[Idarubicin]", "values": [{"measurement": "inhibition at 10 µM", "setting": "[1]", "value": 97, "unit": "%"}, {"measurement": "% of the SCH23390 effect", "setting": "[2]", "value": 83, "unit": "%"}]}, {"smiles": "O=C1Cc2c([nH]c3ccc(Br)cc23)-c2ccccc2N1", "note": "[Kenpaullone]", "values": [{"measurement": "inhibition at 10 µM", "setting": "[1]", "value": 68, "unit": "%"}, {"measurement": "% of the SCH23390 effect", "setting": "[2]; [5]", "value": 83, "unit": "%"}]}, {"smiles": "CN1CCc2ccccc2Cc2[nH]c3ccccc3c2CC1", "note": "[LE 300, 7-Methyl-6,7,8,9,14,15-hexahydro-5H-benz[d]indolo[2,3-g]azecine]", "values": [{"measurement": "inhibition at 10 µM", "setting": "[1]", "value": 100, "unit": "%"}, {"measurement": "% of the SCH23390 effect", "setting": "[2]", "value": 99, "unit": "%"}, {"measurement": "% inhibition of DA activity (Aedes cell-based assay screen)", "setting": "[2]", "value": 99, "unit": "%"}]}, {"smiles": "O=C1c2c(O)ccc(O)c2C(=O)c2c(NCCNCCO)ccc(NCCNCCO)c21", "note": "[Mitoxantrone]", "values": [{"measurement": "% of the SCH23390 effect", "setting": "[2]; [5]", "value": 83, "unit": "%"}]}, {"smiles": "O=C1C(SCCO)=C(SCCO)C(=O)c2ccccc21", "note": "[NSC 95397]", "values": [{"measurement": "% Inhibition (of response to dopamine), Isdop2 screen", "setting": "[1]", "value": 93, "unit": "%"}, {"measurement": "% of the SCH23390 effect", "setting": "[2]; [5]", "value": 83, "unit": "%"}]}, {"smiles": "O=C(Nc1ccc([N+](=O)[O-])cc1Cl)c1cc(Cl)ccc1O", "note": "[Niclosamide]", "values": [{"measurement": "inhibition at 10 µM", "setting": "[1]", "value": 100, "unit": "%"}, {"measurement": "% of the SCH23390 effect", "setting": "[2]; [5]", "value": 95, "unit": "%"}]}, {"smiles": "CCCN1C[C@H](CSC)C[C@@H]2c3cccc4[nH]cc(c34)C[C@H]21", "note": "[Pergolide Mesylate, 8β-[(Methylthio)methyl]-6-propylergoline methanesulfonate salt]", "values": [{"measurement": "IC50", "setting": "[3]; [11]", "value": 704, "unit": "nM"}]}, {"smiles": "O=C1[C@H]2CCCC[C@H]2C(=O)N1CCCCN1CCN(c2nsc3ccccc23)CC1", "note": "[Peropirone Hcl, (3aR,7aS)-2-{4-[4-(1,2-benzisothiazol-3-yl)piperazin-1-yl]butyl}hexahydro-1H-isoindole-1,3(2H)-dione]", "values": [{"measurement": "IC50", "setting": "[3]; [11]", "value": 186, "unit": "nM"}]}, {"smiles": "Cc1ccc(N(CC2=NCCN2)c2cccc(O)c2)cc1", "note": "[Phentolamine HCl, 2-[N-(3-Hydroxyphenyl)-p-toluidinomethyl]-2-imidazolidine hydrochloride]", "values": [{"measurement": "IC50", "setting": "[3]; [11]", "value": 9030, "unit": "nM"}]}, {"smiles": "CCCCCCCCCCCCCC(=O)O[C@@H]1[C@@H](C)[C@@]2(O)[C@@H](C=C(CO)C[C@]3(O)C(=O)C(C)=C[C@@H]23)[C@@H]2C(C)(C)[C@]12OC(C)=O", "note": "[Phorbol 12-myristate 13-acetate]", "values": [{"measurement": "% Inhibition (of response to dopamine), Isdop2 screen", "setting": "[1]", "value": 75, "unit": "%"}, {"measurement": "% of the SCH23390 effect", "setting": "[2]", "value": 88, "unit": "%"}]}, {"smiles": "Oc1cc(O)cc(/C=C/c2ccc(O)c(O)c2)c1", "note": "[Piceatannol]", "values": [{"measurement": "inhibition at 10 µM", "setting": "[1]", "value": 100, "unit": "%"}, {"measurement": "% of the SCH23390 effect", "setting": "[2]; [5]", "value": 98, "unit": "%"}]}, {"smiles": "Cc1nc2ccccn2c(=O)c1CCN1CCC(C(=O)c2ccc(F)cc2)CC1", "note": "[Pirenperone, 3-[2-[4-(p-fluorobenzoyl)piperidino]ethyl]-2-methyl-4h-pyrido[1,2-a]pyrimidin-4-one]", "values": [{"measurement": "inhibition at 10 µM", "setting": "[1]", "value": 87, "unit": "%"}, {"measurement": "% of the SCH23390 effect", "setting": "[2]; [5]", "value": 90, "unit": "%"}, {"measurement": "% inhibition of DA activity (Aedes cell-based assay screen)", "setting": "[2]", "value": 90, "unit": "%"}]}, {"smiles": "CN(C)CCCN1c2ccccc2Sc2ccccc21", "note": "[Promazine, N,N-dimethyl-3-(10H-phenothiazin-10-yl)-propan-1-amine]", "values": [{"measurement": "inhibition at 10 µM", "setting": "[1]", "value": 87, "unit": "%"}, {"measurement": "% of the SCH23390 effect", "setting": "[2]", "value": 88, "unit": "%"}, {"measurement": "% inhibition of DA activity (Aedes cell-based assay screen)", "setting": "[2]", "value": 88, "unit": "%"}]}]}
